# Measurements published in ChEMBL document CHEMBL1138082, “Structural requirements for the substrates of the H+/peptide cotransporter PEPT2 determined by three-dimensional quantitative structure-activity relationship analysis” (J Med Chem, 2006).
# Residues, ends and D or L forms follow the SMILES beside them.
# Columns and labels:
# [1] = Selectivity for rat PEPT2 over human PEPT1
# [2] = biological target: T1, Solute carrier family 15 member 2 (Rattus norvegicus, UniProt Q63424); assay: Displacement of [14C]Gly-Sar from rat PEPT2 in SKPT0193 C1.2 cells; format: cell-based
# T1 sequence (Q63424 whole entry): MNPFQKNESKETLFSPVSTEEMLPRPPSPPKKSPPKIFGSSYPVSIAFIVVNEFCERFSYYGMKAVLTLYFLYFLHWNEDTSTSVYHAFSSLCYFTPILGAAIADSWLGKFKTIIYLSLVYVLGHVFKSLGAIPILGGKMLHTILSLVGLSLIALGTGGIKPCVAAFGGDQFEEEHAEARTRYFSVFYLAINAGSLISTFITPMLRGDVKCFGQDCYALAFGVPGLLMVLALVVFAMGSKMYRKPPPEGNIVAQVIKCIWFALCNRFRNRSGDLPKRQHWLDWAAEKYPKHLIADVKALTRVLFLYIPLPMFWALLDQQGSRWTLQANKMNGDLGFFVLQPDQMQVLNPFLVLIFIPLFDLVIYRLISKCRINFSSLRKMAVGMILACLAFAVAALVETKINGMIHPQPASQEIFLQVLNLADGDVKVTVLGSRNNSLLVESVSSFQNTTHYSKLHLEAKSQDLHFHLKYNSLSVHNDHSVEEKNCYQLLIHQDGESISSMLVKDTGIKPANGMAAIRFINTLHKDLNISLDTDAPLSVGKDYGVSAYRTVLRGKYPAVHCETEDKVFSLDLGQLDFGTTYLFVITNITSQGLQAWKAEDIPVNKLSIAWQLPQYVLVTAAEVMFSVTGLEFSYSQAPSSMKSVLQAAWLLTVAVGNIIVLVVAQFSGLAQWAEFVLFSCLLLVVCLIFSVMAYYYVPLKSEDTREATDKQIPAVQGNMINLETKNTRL
# [3] = biological target: T2, Solute carrier family 15 member 1 (Homo sapiens, UniProt P46059); assay: Displacement of [14C]Gly-Sar from human PEPT1 in Caco-2 cells; format: cell-based
# T2 sequence (P46059 whole entry): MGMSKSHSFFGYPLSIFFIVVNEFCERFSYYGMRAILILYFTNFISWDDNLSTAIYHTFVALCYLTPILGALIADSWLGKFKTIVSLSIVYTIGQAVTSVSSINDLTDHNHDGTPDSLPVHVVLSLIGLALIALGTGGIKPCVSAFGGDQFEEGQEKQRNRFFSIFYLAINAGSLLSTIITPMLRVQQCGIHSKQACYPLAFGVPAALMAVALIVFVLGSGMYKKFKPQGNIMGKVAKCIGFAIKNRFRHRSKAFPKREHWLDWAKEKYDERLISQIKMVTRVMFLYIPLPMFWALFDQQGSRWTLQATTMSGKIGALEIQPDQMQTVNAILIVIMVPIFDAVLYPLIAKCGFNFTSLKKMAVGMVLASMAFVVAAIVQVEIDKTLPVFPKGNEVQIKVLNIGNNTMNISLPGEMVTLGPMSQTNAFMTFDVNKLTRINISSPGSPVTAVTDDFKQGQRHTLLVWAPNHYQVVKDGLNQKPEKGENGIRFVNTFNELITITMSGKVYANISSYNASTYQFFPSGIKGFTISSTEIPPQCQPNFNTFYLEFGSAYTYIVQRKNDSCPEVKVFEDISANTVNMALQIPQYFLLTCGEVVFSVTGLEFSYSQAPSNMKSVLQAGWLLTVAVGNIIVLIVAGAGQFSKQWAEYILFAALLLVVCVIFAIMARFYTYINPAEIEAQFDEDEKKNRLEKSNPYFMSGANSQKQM
Structure (SMILES),log selectivity ratio [1],Ki [2] [µM],Ki [3] [µM]
C[C@H](NC(=O)[C@@H](N)Cc1c[nH]c2ccccc12)C(=O)O (H-Trp-Ala-OH),1.7,4,
CC(C)C[C@H](N)C(=O)N[C@@H](C)C(=O)N[C@@H](CCCN=C(N)N)C(=O)O (H-Leu-Ala-Arg-OH),-1.1,,
CC(C)C[C@H](N)C(=O)N[C@@H](C)C(=O)N[C@@H](CCCNC(=N)N)C(=O)O (H-Leu-Ala-Arg-OH),,1200,100
C[C@H](NC(=O)[C@H](Cc1ccccc1)NC(=O)c1ccccc1)C(=O)O,0.7,3.7,20
